Data: patent publication US10864188B2, “Anti-microbial composition” (SEPTEOS, priority 2010, dated 2020)

Columns and labels:
Other Gram - rods = assay: MIC of pure components in Mueller Hinton gelose; type: cell-based; set-up: unit not given beside the values; details: Other Gram - rods n = 15
[1] = test system: Staphylococcus And Enterococcus; assay: MIC of pure components in Mueller Hinton gelose; type: cell-based; set-up: MIC 50 / MIC 90: unit not given beside the values; details: Staphylococcus And Enterococcus n = 14; for MIC Range: in µg/mL
Enterobacteriaceae = assay: MIC of pure components in Mueller Hinton gelose; type: cell-based; set-up: unit not given beside the values; details: Enterobacteriaceae n = 13
MRSA = details: cited from earlier work

SMILES | MIC Range (Other Gram - rods) | MIC 50 (Other Gram - rods) | MIC 90 (Other Gram - rods) | MIC Range [1] | other results
O=C(OCc1ccccc1)c1ccccc1 [Benzyl benzoate, benzyl benzoate] | >10000 |  |  |  | 
C=C1CC/C=C(\C)CC[C@@H]2[C@@H]1CC2(C)C [Caryophyllene, beta-caryophyllene] | >10000 | >10000 | >10000 |  | MIC 50 [1]: >10000; MIC 90 [1]: >10000; MIC 50 (Enterobacteriaceae): >10000; MIC 90 (Enterobacteriaceae): >10000; MIC Range (Enterobacteriaceae): >10000
CC12CCC(CC1)C(C)(C)O2 [Cineole, cineole] | >10000 |  |  |  | 
O=C/C=C/c1ccccc1 [Cinnamaldehyde, trans-cinnamaldehyde] |  | 600 | 1250 | 150-300 | MIC Range (Enterobacteriaceae; in µg/mL): 150-600; MIC Range (Other Gram - rods; in µg/mL): 150-1250; bibliographic kinetic data on the main compound (MRSA): 1.7 h
CC(=O)OCC=Cc1ccccc1 [Cinnamyl acetate, cinnamyl acetate] |  | >10000 | >10000 | 5000-10000 | 
C=CC(C)(O)CCC=C(C)C (stereo not shown) [Linalool, linalool] |  | >10000 | >10000 | 2500-10000 | 
